Tests used:
NOS = assay: Functional detection of NOS transfection in mouse mesenteric arteries by absorption spectroscopy
Excerpt: Mouse 1st order mesenteric arteries are dissected out and maintained in Optimem I supplemented with 10% foetal bovine serum. cDNAs (for NOS) inserted into appropriate plasmids are mixed with LipofectAMINE according to the manufacturers instructions. Two arteries are set up in separate perfusion chambers; the first tissue (A) acts as a control (receives LipofectAMINE and plasmids without the cDNA insert), the second tissue (B) receives LipofectAMINE with plasmids containing the NOS cDNA insert. The arteries are exposed to the appropriate transfection solutions for 8 hours.
After 8 hours, the unit switches automatically and perfuses the vessels with normal PSS. Analysis of the lumen diameter via absorption spectroscopy begins, providing continual information on the contractile state of the artery.
Functional detection of NOS activity is achieved by way of a two-stage protocol. Firstly, concentration-response curves to ACh are conducted in both vessels. During the concentration-response curve, changes in the state of the blood vessels are continuously monitored by absorption spectroscopy. ACh selectively activates expressed NOS synthase and causes release of the vasodilator nitric oxide (NO). […] The control vessel should display little vasodilation to ACh, as NOS cDNA was not transfected in this tissue.
Both vessels are then perfused with normal PSS for thirty minutes. […]

[1] = system: 3rd order mesenteric arteries; assay: Absorption spectroscopy of agonist-induced vasoconstriction in pressurised rat mesenteric arteries; conditions: increasing concentrations; normotensive male Wistar rat arteries, 60 mmHg, 37° C., PSS
Procedure: 3rd order mesenteric arteries from normotensive male Wistar rats were set up in two perfusion chambers in normal physiological salt solution (PSS), at 37° C. and gassed with 95% O2/5% CO2. The vessels were pressurised to 60 mmHg and allowed to equilibrate for 30 minutes. Thereafter, one vessel acted as a control and the other vessel received increasing concentrations of the thromboxane A2 mimetic, U46619. Transmission spectra were recorded at one second intervals and analysed according to the methods described above.
The optical extinction model described above was used to accurately and continuously measure lumen diameter.

## COC(=O)[C@@H](N)CCCNC(=N)N[N+](=O)[O-] [L-NAME]
NOS; NOS cDNA-transfected mouse mesenteric artery
  effect on ACh responses (concentration response curve repeated in presence of inhibitor): abolish further responses to ACh

## CCCCC[C@H](O)/C=C/[C@@H]1[C@@H](C/C=C\CCCC(=O)O)[C@H]2CO[C@@H]1C2 [U46619]
[1]
  vasoconstriction (change in lumen diameter) detected via shifts in transmission spectra: vasoconstriction was detected

## CC(=O)OCC[N+](C)(C)C [ACh]
NOS; concentration-response curve, NOS-knockout mouse 1st order mesenteric artery after 8 hours transfection
  response of NOS cDNA-transfected blood vessel to ACh: vasodilation
